According to patent publication US20070026505A1, “Amino acid and metabolite biosynthesis” (priority 2005, published 2007):

How the values were obtained:
C. glutamicum MetA = target: T1, C. glutamicum MetA (Corynebacterium glutamicum, UniProt O68640); assay: MetA (in vitro O-acetyltransferase) activity in crude protein extracts, C. glutamicum MetA; format: biochemical
T1 construct: contain both endogenous and episomal C. glutamicum MetA and MetY genes; expressed in transfected cells; host or cells: C. glutamicum MA-442 (plasmid MB-4135, metA-metY) and MA-449 (MB-4138, metY-metA), both MA-428 / ATCC 13032 derivatives; crude protein extract
Experimental: MetA activity in C. glutamicum expressing endogenous and episomal metA genes was determined. MetA activity was assayed in crude protein extracts using a protocol described by Kredich and Tomkins (J. Biol. Chem.241(21): 4955-4965, 1966). […] Briefly, 1 μg of protein extract was added to a microtiter plate. Reaction mix (250 μl; 100 mM tris-HCl pH 7.5, 2 mM 5,5′-Dithiobis(2-nitrobenzoic acid) (DTN), 2 mM sodium EDTA, 2 mM acetyl CoA, 2 mM homoserine) was added to each well of the microtiter plate. In the course of the reactions, MetA activity liberates CoA from acetyl-CoA. A disulfide interchange occurs between the CoA and DTN to produce thionitrobenzoic acid. The production of thionitrobenzoic acid is followed spectrophotometrically. Absorbance at 412 nm was measured every 5 minutes over a period of 30 minutes. A well without protein extract was included as a control. […] Inhibitors were added directly to the reaction mix before it was added to the protein extract.
Experiments were performed in the presence and absence of IPTG that induces expression of the plasmid borne MetA and MetY genes.

[1] = system: O-Acetylhomoserine sulfhydrylase (MetY); settings: grown in the presence of 0.5 mM methionine; cited from earlier work

T1 sequence (O68640 whole entry): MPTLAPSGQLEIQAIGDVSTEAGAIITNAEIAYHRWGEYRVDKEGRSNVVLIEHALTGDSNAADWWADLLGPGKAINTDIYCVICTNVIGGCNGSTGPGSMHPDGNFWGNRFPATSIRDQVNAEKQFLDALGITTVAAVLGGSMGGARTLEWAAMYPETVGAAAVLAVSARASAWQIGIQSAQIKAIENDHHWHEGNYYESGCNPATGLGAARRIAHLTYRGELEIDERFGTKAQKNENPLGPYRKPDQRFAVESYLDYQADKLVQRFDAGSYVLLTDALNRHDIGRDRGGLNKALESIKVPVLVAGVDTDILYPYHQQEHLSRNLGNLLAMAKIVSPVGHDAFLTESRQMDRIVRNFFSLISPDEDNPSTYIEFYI

C[S+](CC[C@H](N)C(=O)[O-])C[C@H]1O[C@@H](n2cnc3c(N)ncnc32)[C@H](O)[C@@H]1O (stereo partly drawn) [S-AM, S-adenosyl methionine]
MetA activity of MA-442 extracts in presence of S-AM (C. glutamicum MetA; 0.2 mM S-AM): reduced

CSCC[C@H](N)C(=O)O [methionine]
reduction in MetY enzyme activity [1]: 99% | MetA activity of MA-442 extracts in presence of methionine (C. glutamicum MetA; 5 mM methionine): reduced
